Patent US12054475B2, “Substituted heterocycles as aldehyde dehydrogenase inhibitors” (KayoThera Inc., priority 2021, dated 2024)
“And” between values parts separate entries of the source, which are not always exact repeats. Equal values may be shown once. Read-outs that look alike come from different tables or passages of the source.

Assays:
[1] = target: T1, hALDH1a3 (Homo sapiens (Human), UniProt P47895); test: Aldh1a3 enzyme inhibition assay (recombinant enzyme, resorufin fluorescence); type: biochemical
Protocol: (§1) Cells were resuspended in 10 mM […] pH 7.4, 10 mM KCl. […] Recombinant enzyme and inhibitor added immediately before assay. Reaction rate measured by resorufin fluorescence.

[2] = target: mALDH1a3 (Mus musculus (Mouse), UniProt Q9JHW9); test: as above; type: biochemical
Protocol: as §1

[3] = target: T2, hALDH1a2 (Homo sapiens (Human), UniProt O94788); test: Aldh1a2 enzyme inhibition assay (recombinant enzyme, resorufin fluorescence); type: biochemical
[4] = target: mALDH1a2 (Mus musculus (Mouse), UniProt Q62148); test: as above; type: biochemical
Excerpt: Recombinant enzyme and inhibitor added immediately before assay. Reaction rate measured by resorufin fluorescence.

[5] = target: T2, hALDH1a2; test: Cell based assay: STRA6 mRNA by q-rtPCR in MCF7 cells expressing ALDH1a2; conditions: 20 hours incubation, read-out: IC50 (ALDH1a2), STRA6 mRNA levels
Protocol: (§2) MCF7 cells were stably transduced with lentiviral vectors encoding human ALDH1a1, ALDH1a2 or ALDH1a3 or Vector control and selected by puromycin to establish stable cultures that were verified for overexpression by western blotting and Aldefluor activity. Cells were plated into 6 cm plates in regular DMEM media supplement with […]. At the beginning of the assay, cells were washed with PBS for 5 minutes followed by addition of compound solvated into DMEM media with 10% FBS or corresponding DMSO controls, maintaining DMSO at a constant concentration of 0.1% across all samples. Following 20 hours of incubation at 37 C, cells were lysed and RNA was extracted using a Qiagen RNAeasy kit. cDNA was synthesized using the Superscript IV kit and retinoid activation was measured using STRA6 mRNA levels as a proxy as measured by q-rtPCR.

[6] = target: T1, hALDH1a3; test: Cell based assay: STRA6 mRNA by q-rtPCR in MCF7 cells expressing ALDH1a3; conditions: 20 hours incubation, read-out: IC50 (Aldh1a3), STRA6 mRNA levels
Protocol: as §2

[7] = test system: T3-MCA fibrosarcoma cell line allografts; test: T3-MCA fibrosarcoma allograft study; type: in vivo, C57BL6 syngeneic mice; conditions: oral, 40 mg/kg once daily for twelve days
Protocol: In one allograft study, T3-MCA fibrosarcoma cell line allografts were implanted subcutaneously into C57BL6 syngeneic mice. […] Tumor volume were measured on day 8, 14, and 17 post inoculation for each group, and tumor mass were measured at the end of the study.
In another allograft study, T3-MCA fibrosarcoma cell line allografts were implanted subcutaneously into C57BL6 syngeneic mice.

[8] = Pharmacokinetic profiling in mice; conditions: male CD-1/C57BL/6 mice

T2 sequence (O94788 whole entry): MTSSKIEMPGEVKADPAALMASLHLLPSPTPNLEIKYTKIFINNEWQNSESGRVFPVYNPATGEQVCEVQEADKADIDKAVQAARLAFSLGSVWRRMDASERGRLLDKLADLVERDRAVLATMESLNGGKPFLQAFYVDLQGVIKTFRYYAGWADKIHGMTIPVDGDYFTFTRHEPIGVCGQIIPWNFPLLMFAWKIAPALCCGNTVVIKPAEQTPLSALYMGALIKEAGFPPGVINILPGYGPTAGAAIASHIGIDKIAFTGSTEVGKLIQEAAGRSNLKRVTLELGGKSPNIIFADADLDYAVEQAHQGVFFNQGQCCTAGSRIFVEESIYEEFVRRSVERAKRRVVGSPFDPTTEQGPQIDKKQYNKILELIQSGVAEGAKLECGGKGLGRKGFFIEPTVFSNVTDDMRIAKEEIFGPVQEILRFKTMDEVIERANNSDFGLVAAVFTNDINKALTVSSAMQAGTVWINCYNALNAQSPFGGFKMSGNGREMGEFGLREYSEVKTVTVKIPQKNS
T1 sequence (P47895 whole entry): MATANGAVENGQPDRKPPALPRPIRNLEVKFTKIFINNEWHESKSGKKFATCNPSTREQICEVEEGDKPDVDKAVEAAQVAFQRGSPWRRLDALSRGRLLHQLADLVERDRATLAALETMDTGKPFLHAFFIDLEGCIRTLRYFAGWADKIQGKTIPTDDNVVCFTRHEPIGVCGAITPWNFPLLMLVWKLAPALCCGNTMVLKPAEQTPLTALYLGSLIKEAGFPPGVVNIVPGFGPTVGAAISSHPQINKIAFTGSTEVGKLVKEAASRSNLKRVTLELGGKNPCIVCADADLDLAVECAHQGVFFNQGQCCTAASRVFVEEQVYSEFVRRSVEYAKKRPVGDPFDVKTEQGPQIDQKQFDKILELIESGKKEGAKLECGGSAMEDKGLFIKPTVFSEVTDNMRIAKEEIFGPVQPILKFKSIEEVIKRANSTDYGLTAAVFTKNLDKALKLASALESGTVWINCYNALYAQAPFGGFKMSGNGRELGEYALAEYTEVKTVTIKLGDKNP
Chain of mALDH1a2 (Q62148 whole entry): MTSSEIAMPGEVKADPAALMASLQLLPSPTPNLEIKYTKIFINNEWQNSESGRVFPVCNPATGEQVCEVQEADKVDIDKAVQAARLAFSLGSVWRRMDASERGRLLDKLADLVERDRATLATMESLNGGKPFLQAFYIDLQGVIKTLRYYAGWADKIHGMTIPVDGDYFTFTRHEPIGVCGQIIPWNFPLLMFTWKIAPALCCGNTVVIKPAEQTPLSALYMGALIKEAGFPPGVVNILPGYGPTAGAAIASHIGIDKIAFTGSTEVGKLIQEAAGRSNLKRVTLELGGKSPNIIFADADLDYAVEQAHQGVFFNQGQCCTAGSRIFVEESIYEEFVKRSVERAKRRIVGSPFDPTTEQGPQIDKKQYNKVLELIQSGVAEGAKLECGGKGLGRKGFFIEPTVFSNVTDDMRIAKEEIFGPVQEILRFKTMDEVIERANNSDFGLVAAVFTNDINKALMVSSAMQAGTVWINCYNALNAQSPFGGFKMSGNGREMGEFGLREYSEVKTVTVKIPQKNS
Chain of mALDH1a3 (Q9JHW9 whole entry): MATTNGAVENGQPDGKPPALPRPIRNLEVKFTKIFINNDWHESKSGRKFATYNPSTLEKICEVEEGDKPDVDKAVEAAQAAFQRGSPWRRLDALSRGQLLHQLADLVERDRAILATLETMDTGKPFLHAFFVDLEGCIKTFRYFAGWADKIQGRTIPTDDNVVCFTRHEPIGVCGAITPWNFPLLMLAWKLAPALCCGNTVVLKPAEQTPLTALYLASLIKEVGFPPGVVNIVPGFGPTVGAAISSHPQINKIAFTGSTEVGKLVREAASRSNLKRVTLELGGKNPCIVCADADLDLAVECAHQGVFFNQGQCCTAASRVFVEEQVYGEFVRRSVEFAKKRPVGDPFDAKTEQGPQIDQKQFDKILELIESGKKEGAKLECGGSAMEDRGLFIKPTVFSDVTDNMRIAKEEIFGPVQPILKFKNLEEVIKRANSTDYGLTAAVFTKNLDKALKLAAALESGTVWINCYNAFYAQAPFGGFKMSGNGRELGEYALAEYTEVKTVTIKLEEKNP

| Molecule | IC50 ([1]; read-out: hAldh1a3 IC50) | IC50 ([2]; read-out: mAldh1a3 IC50) | IC50 [3] | IC50 [4] | other results |
| --- | --- | --- | --- | --- | --- |
| Cc1cc(NC(=O)c2ccncc2CC2CCC2)cc2c1NC(=O)CC2 [Compound 155] | 250 to 1000 nM | 1000 to 5000 nM | 835 nM | 1290 nM |  |
| CCc1cnccc1C(=O)Nc1cc2c(c(C)c1F)NC(=O)CC2 [Compound 146, 3-ethyl-N-(7-fluoro-8-methyl-2-oxo-3,4-dihydro-1H-quinolin-6-yl)pyridine-4-carboxamide] | < 100 nM | < 100 nM | 356 nM | 405 nM |  |
| CCc1cnccc1C(=O)Nc1ccc2c(c1)CCC(=O)N2 [Compound 9] | < 100 nM | 250 to 1000 nM | 587 nM | 1110 nM |  |
| CCc1cnc(Cl)cc1C(=O)Nc1cc(C)c2c(c1)CCC(=O)N2 [Compound 150, 2-chloro-5-ethyl-N-(8-methyl-2-oxo-3,4-dihydro-1H-quinolin-6-yl)pyridine-4-carboxamide] | < 100 nM | < 100 nM | 121 nM | 131 nM |  |
| CCc1cnccc1C(=O)Nc1cc(F)c2c(c1)CCC(=O)N2 [Compound 141, 3-ethyl-N-(8-fluoro-2-oxo-3,4-dihydro-1H-quinolin-6-yl)pyridine-4-carboxamide] | < 100 nM | < 100 nM | 289 nM | 180 nM |  |
| CCn1cncc1C(=O)Nc1ccc2c(c1)CCC(=O)N2 [Compound 49] | > 5000 nM | > 5000 nM | > 10000 nM | > 10000 nM |  |
| O=C1CCc2cc(NC(=O)c3ccncc3CC(F)(F)F)ccc2N1 [Compound 53] | < 100 nM | < 100 nM | 374 nM | 494 nM |  |
| 2-ethyl-N-(8-methyl-2-oxo-3,4-dihydro-1H-quinolin-6-yl) piperazine-1-carboxamide [Compound 192] | > 5000 nM | > 5000 nM | > 10000 nM | > 10000 nM |  |
| CCc1cnccc1C(=O)Nc1cc2c(c3ccncc13)NC(=O)CC2 [Compound 145, 3-ethyl-N-(2-oxo-3,4-dihydro-1H-1,8-phenanthrolin-6-yl)pyridine-4-carboxamide] | < 100 nM | < 100 nM | 120 nM | 172 nM |  |
| Cc1cc(NC(=O)c2ccnc3c2CCO3)cc2c1NC(=O)CC2 [Compound 152, N-(8-methyl-2-oxo-3,4-dihydro-1H-quinolin-6-yl)-2,3-dihydrofuro[2,3-b]pyridine-4-carboxamide] | 1000 to 5000 nM | 250 to 1000 nM | 807 nM | 824 nM |  |
| CCc1cnccc1C(=O)Nc1cc(Cl)c2c(c1)CCC(=O)N2 [Compound 142, N-(8-chloro-2-oxo-3,4-dihydro-1H-quinolin-6-yl)-3-ethyl-pyridine-4-carboxamide] | < 100 nM | < 100 nM | 57 nM | 63 nM |  |
| O=C1CCc2cc(NC(=O)c3ccncc3CC(F)(F)F)c(F)c(F)c2N1 [Compound 167, N-(7,8-difluoro-2-oxo-3,4-dihydro-1H-quinolin-6-yl)-3-(2,2,2-trifluoroethyl) pyridine-4-carboxamide] | < 100 nM | < 100 nM | 754 nM | 815 nM |  |
| CCc1cnccc1C(=O)Nc1cc2c(cn1)NC(=O)CC2 [Compound 159, 3-ethyl-N-(2-oxo-3,4-dihydro-1H-1,7-naphthyridin-6-yl)pyridine-4-carboxamide] | 250 to 1000 nM | 250 to 1000 nM | 2750 nM | 3180 nM |  |
| Cc1cc(NC(=O)c2ccnc3c2CCN3)cc2c1NC(=O)CC2 [Compound 153, N-(8-methyl-2-oxo-3,4-dihydro-1H-quinolin-6-yl)-2,3-dihydro-1H-pyrrolo[2,3-b]pyridine-4-carboxamide] | 1000 to 5000 nM | 250 to 1000 nM | 492 nM | 362 nM |  |
| CCc1cnccc1C(=O)Nc1cc2c(cc1F)NC(=O)CC2 [Compound 1] |  |  | 3330 nM | 3330 nM | IC50 [1]: 100 to 250 nM; IC50 [2]: 100 to 250 nM |
| Cc1cc(Nc2ncc3ccccc3n2)cc2c1NC(=O)C(C)(C)C2 [Compound 160, 3,3,8-trimethyl-6-(quinazolin-2-ylamino)-1,4-dihydroquinolin-2-one] | > 5000 nM | > 5000 nM | 163 nM | 177 nM |  |

| Molecule | IC50 ([1]; read-out: hAldh1a3 IC50) | IC50 ([2]; read-out: mAldh1a3 IC50) | IC50 [3] | IC50 [4] | other results |
| --- | --- | --- | --- | --- | --- |
| O=C1CCc2cc(NC(=O)c3ccncc3CC(F)(F)F)c(F)cc2N1 [Compound 82] | < 100 nM | 100 to 250 nM | 620 nM | 941 nM |  |
| CCc1cnccc1C(=O)Nc1cc2c(c(F)c1F)NC(=O)CC2 [Compound 143, N-(7,8-difluoro-2-oxo-3,4-dihydro-1H-quinolin-6-yl)-3-ethyl-pyridine-4-carboxamide] | < 100 nM | < 100 nM | 674 nM | 594 nM |  |
| CCc1cnccc1C(=O)Nc1cc2c(c(C)c1C)NC(=O)CC2 [Compound 147, N-(7,8-dimethyl-2-oxo-3,4-dihydro-1H-quinolin-6-yl)-3-ethyl-pyridine-4-carboxamide] | 100 to 250 nM | 250 to 1000 nM | 431 nM | 358 nM |  |
| CCC1COCCN1C(=O)Nc1cc(C)c2c(c1)CCC(=O)N2 (racemic) [Compound 193] | > 5000 nM | > 5000 nM |  |  |  |
| Cc1cc(NC(=O)c2ccncc2CC(F)(F)F)cc2c1NC(=O)CC2 [Compound 151, N-(8-methyl-2-oxo-3,4-dihydro-1H-quinolin-6-yl)-3-(2,2,2-trifluoroethyl)pyridine-4-carboxamide] |  |  | 75 nM | 86 nM | IC50 [5]: 55.3 nM and < 50 nM; IC50 [6]: 1.25 nM and < 50 nM; tolerability [7]: excellent tolerability; tumor growth [7]: successful inhibition of tumor growth |
| O=C1CCc2cc(NC(=O)c3ccncc3CC3CC3)ccc2N1 [Compound 59] | < 100 nM | < 100 nM | 530 nM | 487 nM |  |
| Cc1cc(Nc2cnc3ccccc3n2)cc2c1NC(=O)C(C)(C)C2 [Compound 161, 3,3,8-trimethyl-6-(quinoxalin-2-ylamino)-1,4-dihydroquinolin-2-one] | > 5000 nM | 250 to 1000 nM | 89 nM | 114 nM |  |
| CCc1ccccc1C(=O)Nc1cc2c(cc1F)NC(=O)CC2 [Compound 4] |  |  |  |  | plasma half-life, IV bolus dosing ([8]; 1 mg/kg intravenous): 1.22 h; plasma half-life, PO oral gavage dosing ([8]; 10 mg/kg oral gavage): 1.70 h; oral bioavailability ([8]; 10 mg/kg oral gavage, 1 mg/kg intravenous): 62.5% |
| CCc1cnc(Cl)cc1C(=O)Nc1ccc2c(c1)CCC(=O)N2 [Compound 77] |  |  | 415 nM | 333 nM |  |
| O=C1CCc2cc(NC(=O)c3ccncc3CC(F)(F)F)cc(Cl)c2N1 [Compound 168, N-(8-chloro-2-oxo-3,4-dihydro-1H-quinolin-6-yl)-3-(2,2,2-trifluoroethyl) pyridine-4-carboxamide] |  |  | 70 nM | 92 nM |  |
| CCc1nnccc1C(=O)Nc1cc(C)c2c(c1)CCC(=O)N2 [Compound 166, 3-ethyl-N-(8-methyl-2-oxo-3,4-dihydro-1H-quinolin-6-yl) pyridazine-4-carboxamide] | < 100 nM | 250 to 1000 nM | 1600 nM | > 10000 nM |  |
| CCc1cnccc1C(=O)Nc1cnc2c(c1)CCC(=O)N2 [Compound 154, 3-ethyl-N-(7-oxo-6,8-dihydro-5H-1,8-naphthyridin-3-yl)pyridine-4-carboxamide] | 1000 to 5000 nM | 250 to 1000 nM | 4750 nM | 8170 nM |  |
| CCc1cnccc1C(=O)Nc1cc2c(cc1C)NC(=O)CC2 [Compound 83] | 100 to 250 nM | 1000 to 5000 nM | 9000 nM | 3500 nM |  |
| CCc1cnccc1C(=O)Nc1cc(CC)c2c(c1)CCC(=O)N2 [Compound 144, 3-ethyl-N-(8-ethyl-2-oxo-3,4-dihydro-1H-quinolin-6-yl)pyridine-4-carboxamide] | < 100 nM | < 100 nM | 304 nM | 462 nM |  |
| CCc1cnccc1C(=O)Nc1cc(C#N)c2c(c1)CCC(=O)N2 [Compound 139, N-(8-cyano-2-oxo-3,4-dihydro-1H-quinolin-6-yl)-3-ethyl-pyridine-4-carboxamide] | 100 to 250 nM | < 100 nM | 10000 nM | 1480 nM |  |
| Cc1cc(NC(=O)c2ccncc2CC2CC2)cc2c1NC(=O)CC2 [Compound 149, 3-(cyclopropylmethyl)-N-(8-methyl-2-oxo-3,4-dihydro-1H-quinolin-6-yl)pyridine-4-carboxamide] | < 100 nM | < 100 nM |  | 118 nM |  |
